The values below come from article PMC9098913, “In vitro reconstitution of Escherichia coli divisome activation” (Nature Communications, 2022).

Where two headings read alike, the source gives them in different places.

For data set [1] the following is noted: Fig. S4b, 0.10 % Tris NTA. The protocol:
To study colocalization of His-tagged variants of FtsA, 0.5–1 µM of Cy5 labelled His-tagged FtsAs were added to the chamber, incubated for 20 min and washed 6x with reaction buffer. […] To control the density of membrane-bound FtsA, SUVs without and with Tris-NTA lipids were mixed to obtain the respective Tris-NTA concentrations. To perform FRET/FRAP experiments, equimolar concentrations of Cy3 and Cy5 labelled His-tagged FtsAs (total 0.5–1 µM) or His-SUMO-Cys were added to a chamber and treated as above. […] FRAP experiments were performed as described before.
To calculate the theoretical spacing of His-tagged FtsAs or the His-SUMO control, we consulted a previous QCM-D study using Tris-NTA lipids and a His-tagged version of ZipA[50]. The spacing in nm^2 was calculated by y=2/3⋅1/6.022⋅x⋅0.001 , where x is the protein density in pMol cm^−2 which can be estimated from the Tris-NTA lipid density.
To estimate the theoretical maximum packing of membranes containing Tris-NTA lipids, we can assume the area of a single FtsA molecule to be ~30 nm^2 and the area of a single lipid molecule to be 0.5 nm^2. […] For the FRET control experiments with His-SUMO-Cys, we estimate a four times smaller area for His6-SUMO Cys (~7 nm^2) and thus increase the maximum Tris-NTA density to 5%.

The test system of a further data set is FtsZ filaments. The experiment in a line: FtsZ turnover / lifetime / off-rate, single-molecule tracking. Type of data set: biochemical, E. coli. The protocol: Single-molecule experiments were performed as described previously. In short, individual FtsZ proteins were imaged at single-molecule level by adding small amounts of Cy5-labelled FtsZ (200 pM) to a chamber with 0.2 or 0.4 µM FtsA and 1.25 μM Alexa488-FtsZ.
Single molecules of FtsA or FtsZ were tracked using the TrackMate plugin from ImageJ[43]. To obtain the residence time of FtsZ and FtsA, we performed a residence time analysis as described before[40],[47]. Shortly, single molecules were imaged at different acquisition rates (0.1–2 s) and the lifetime of the molecules was extracted from each data set. To account for photobleaching effect, the obtained lifetimes were plotted against the acquisition rate. […] Furthermore, we extracted the diffusion coefficient of FtsA single molecules at increasing concentrations. For this, we filtered the obtained data, by considering only trajectories which are present on the membrane for more than 0.4 s. […] Subsequently, the diffusion coefficient of FtsA molecules was estimated by fitting an MSD curve to each individual trajectory.

As for “FtsA-His6: FtsA WT (1-405) with amphipathic helix replaced by C-terminal His-tag”, the “FtsA His6 intensity on Tris NTA SLBs” value in data set [1] (replicate 1) turned out to be 1571.82 a.u; in data set [1] (replicate 2) it was 1134.07 a.u; in data set [1] (replicate 3), 932.94 a.u.

B1: FtsA R286W (protein)
chain: MIKATDRKLVVGLEIGTAKVAALVGEVLPDGMVNIIGVGSCPSRGMDKGGVNDLESVVKCVQRAIDQAELMADCQISSVYLALSGKHISCQNEIGMVPISEEEVTQEDVENVVHTAKSVRVRDEHRVLHVIPQEYAIDYQEGIKNPVGLSGVRMQAKVHLITCHNDMAKNIVKAVERCGLKVDQLIFAGLASSYSVLTEDERELGVCVVDIGGGTMDIAVYTGGALRHTKVIPYAGNVVTSDIAYAFGTPPSDAEAIKVRHGCALGSIVGKDESVEVPSVGGRPPWSLQRQTLAEVIEPRYTELLNLVNEEILQLQEKLRQQGVKHHLAAGIVLTGGAAQIEGLAACAQRVFHTQVRIGAPLNITGLTDYAQEPYYSTAVGLLHYGKESHLNGEAEVEKRVTASVGSWIKRLNSWLRKEF
modifications: Cy3 or Cy5 at the N-terminus in the labelled form (labelled CLEPTGG peptide conjugated to the 5xGly tag by sortagging); unlabelled protein also used; left off: TwinStrep-SUMO, N-terminal, cleaved | 5x
For B1, in the data set on FtsZ filaments, the “FtsZ turnover compared to the wild-type protein” value was “slightly decreased”.
